The first experiment deals with rhSYK (Homo sapiens, UniProt P43405). Particulars: read-out: rhSYK Activity; Table 119; two symbols in a cell = one per listed form.
For the molecule `Cc1cc(Nc2nccc(C(F)(F)F)n2)cc(-c2cnc(C3(O)CCC(C(N)=O)C3)s2)c1` (single isomer, unassigned) [Example 119-1], the IC50 is below 100 nM.

For `Cc1cc(Nc2nccc(C(F)(F)F)n2)cc(-c2cnc(C3(O)CCC(C(N)=O)C3)s2)c1` (single isomer, unassigned) [Example 119-3], the IC50 was below 100 nM.

`Cc1cc(Nc2nccc(C(F)(F)F)n2)cc(-c2cnc(C3(O)CCC(C(N)=O)C3)s2)c1` (single isomer, unassigned) [Example 119-4]: the IC50 is below 100 nM. Take `Cc1cc(Nc2nccc(C)n2)cc(-c2cnc(C3(O)CCC(C(N)=O)C(C)C3)s2)c1` (single isomer, unassigned) [Example 119-6]: the IC50 is below 100 nM. On to `Cc1cc(Nc2nccc(C(F)(F)F)n2)cc(-c2cnc(C3(O)CCC(C(N)=O)C(C)C3)s2)c1` (single isomer, unassigned) [Example 119-112], for which the IC50 was below 100 nM.

The same experiment, now with this note: read-out: rhSYK Activity; class symbol; where two forms are listed, one symbol per form.
For the molecule `O=C(c1ccccc1)N1CCC(O)(c2ncc(-c3cccc(Nc4nccc(C(F)(F)F)n4)c3)s2)CC1` [4D-6], the IC50 was below 100 nM.

As for `Cc1cc(Nc2nccc(C(F)(F)F)n2)cc(-c2cnc(C(C)(O)CO)s2)c1` (stereo not drawn) [Ex 5-5], the IC50 was below 100 nM. The same measure, in the same setting: under `Cc1cc(Nc2nccc(C(F)(F)F)n2)cc(-c2cnc(C(C)(O)CO)s2)c1` (stereo not drawn) [Ex 5-6] stands below 100 nM; under `Cc1cc(Nc2nccc(C(F)(F)F)n2)cc(-c2cnc(C(C)(O)CO)s2)c1` (stereo not drawn) [Ex 5-7], below 100 nM; under `Cc1cc(Nc2ncc(F)c(C)n2)cc(-c2cnc(C(C)(O)CO)s2)c1` (stereo not drawn) [Ex 5-8], below 100 nM.

On to `Cc1cc(Nc2ncc(F)c(C)n2)cc(-c2cnc(C(C)(O)CO)s2)c1` (stereo not drawn) [Ex 5-9], for which the IC50 was below 100 nM.

Regarding `Cc1cc(Nc2ncc(F)c(C)n2)cc(-c2cnc(C(C)(O)CO)s2)c1` (stereo not drawn) [Ex 5-10], the IC50 is below 100 nM. On to `Cc1cc(Nc2ncc(Cl)cn2)cc(-c2cnc(C(C)(O)CO)s2)c1` (stereo not drawn) [Ex 5-11], for which the IC50 was 100 to 1000 nM. Take `Cc1cc(Nc2ncc(Cl)cn2)cc(-c2cnc(C(C)(O)CO)s2)c1` (stereo not drawn) [Ex 5-12]: the IC50 was below 100 nM. For the molecule `Cc1cc(Nc2ncc(Cl)cn2)cc(-c2cnc(C(C)(O)CO)s2)c1` (stereo not drawn) [Ex 5-13], the IC50 fell in the range of 100 to 1000 nM. For `Cc1cc(Nc2ncc(F)c(C3CC3)n2)cc(-c2cnc(C(C)(O)CO)s2)c1` (stereo not drawn) [Ex 5-16], the IC50 was below 100 nM.

As to `Cc1cc(Nc2ncc(F)c(C3CC3)n2)cc(-c2cnc(C(C)(O)CO)s2)c1` (stereo not drawn) [Ex 5-17], the IC50 is below 100 nM. Take `Cc1cc(Nc2ncc(F)c(C3CC3)n2)cc(-c2cnc(C(C)(O)CO)s2)c1` (stereo not drawn) [Ex 5-18]: the IC50 was below 100 nM. `COc1ccc(Nc2nccc(C(F)(F)F)n2)cc1-c1cnc(C2(O)CCC2)s1` [Example 1-1]: the IC50 is below 100 nM. Still for that read-out and setting: under `OC1(c2ncc(-c3cc(Nc4nccc(C(F)(F)F)n4)ccc3Cl)s2)CCC1` [Example 1-2] stands 100 to 1000 nM; under `OC1(c2ncc(-c3cc(Nc4nccc(C(F)(F)F)n4)ccc3OC(F)(F)F)s2)CCC1` [Example 1-3], 100 to 1000 nM. Take `OC1(c2ncc(-c3cc(Nc4nccc(C(F)(F)F)n4)ccc3OCc3ccccc3)s2)CCC1` [Example 1-4]: the IC50 was in the range of 100 to 1000 nM. Regarding `Oc1ccc(Nc2nccc(C(F)(F)F)n2)cc1-c1cnc(C2(O)CCC2)s1` [Example 1-5], the IC50 was below 100 nM. For `Cc1ccc(Nc2nccc(C(F)(F)F)n2)cc1-c1cnc(C2(O)CCC2)s1` [Example 1-6], the IC50 is below 100 nM. `CC(C)(O)c1ncc(-c2cccc(Nc3nccc(C(F)(F)F)n3)c2)s1` [Example 4A-1]: the IC50 is below 100 nM. For the molecule `CC(O)(c1ncc(-c2cccc(Nc3nccc(C(F)(F)F)n3)c2)s1)C(F)(F)F` (stereo not drawn) [Example 4A-2], the IC50 is below 100 nM.

As for `CC(C)(C)C(C)(O)c1ncc(-c2cccc(Nc3nccc(C(F)(F)F)n3)c2)s1` (stereo not drawn) [Example 4A-6], the IC50 was in the range of 100 to 1000 nM. As to `OC(c1ccccc1)(c1ncc(-c2cccc(Nc3nccc(C(F)(F)F)n3)c2)s1)C(F)F` (stereo not drawn) [Example 4A-7], the IC50 fell in the range of 100 to 1000 nM.

On to `CN(C)CC(C)(C)C(O)c1ncc(-c2cccc(Nc3nccc(C(F)(F)F)n3)c2)s1` (stereo not drawn) [Example 4A-8], for which the IC50 lay in the range of 100 to 1000 nM.

For the molecule `CCC(O)(c1ncc(-c2cccc(Nc3nccc(C(F)(F)F)n3)c2)s1)C(F)(F)F` (stereo not drawn) [Example 4A-9], the IC50 was below 100 nM.

The same experiment, now with this note: read-out: rhSYK activity; class symbol given.
With `Cc1cc(Nc2nccc(C(F)(F)F)n2)cc(-c2cnc(C3(O)CCC(O)CC3)s2)c1` (stereo not drawn) [8(2), trans-1-[5-(3-methyl-5-{[4-(trifluoromethyl)pyrimidin-2-yl]amino}phenyl)-1,3-thiazol-2-yl]-cyclohexane-1,4-diol], the IC50 was below 100 nM. Same read-out and setting: under `Cc1cc(Nc2nccc(C(F)(F)F)n2)cc(-c2cnc([C@]3(O)CC[C@@](C)(O)CC3)s2)c1` [9(2), cis-1-methyl-4-[5-(3-methyl-5-{[4-(trifluoromethyl)pyrimidin-2-yl]amino}phenyl)-1,3-thiazol-2-yl]cyclohexane-1,4-diol] stands below 100 nM; under `Cc1cc(Nc2nccc(C(F)(F)F)n2)cc(-c2cnc([C@]3(O)CC[C@@H](C(=O)O)CC3)s2)c1` [33(1)-K, Potassium cis-4-hydroxy-4-[5-(3-methyl-5-{[4-(trifluoromethyl)pyrimidin-2-yl]amino}phenyl)-1,3-thiazol-2-yl]cyclohexanecarboxylate], below 100 nM. Consider `Cc1cc(Nc2nccc(C(F)(F)F)n2)cc(-c2cnc(C3(O)CCC(C(=O)O)CC3)s2)c1` (stereo not drawn) [33(1)-NA, Sodium cis-4-hydroxy-4-[5-(3-methyl-5-{[4-(trifluoromethyl)pyrimidin-2-yl]amino}phenyl)-1,3-thiazol-2-yl]cyclohexanecarboxylate], for which the IC50 was below 100 nM. Turning to `Cc1cc(Nc2nccc(C(F)(F)F)n2)cc(-c2cnc([C@]3(O)CC[C@H](C(=O)O)CC3)s2)c1` [33(2)-K, Potassium trans-4-hydroxy-4-[5-(3-methyl-5-{[4-(trifluoromethyl)pyrimidin-2-yl]amino}phenyl)-1,3-thiazol-2-yl]cyclohexanecarboxylate], the IC50 was below 100 nM.

In the case of `Cc1cc(Nc2nccc(C(F)(F)F)n2)cc(-c2cnc(C3(O)CCC(C#N)CC3)s2)c1` (stereo not drawn) [37(1), cis-4-hydroxy-4-[5-(3-methyl-5-{[4-(trifluoromethyl)pyrimidin-2-yl]amino}phenyl)-1,3-thiazol-2-yl]cyclohexanecarbonitrile], the IC50 is below 100 nM. With `Cc1cc(Nc2nccc(C(F)(F)F)n2)cc(-c2cnc(C3(O)CCC(C#N)CC3)s2)c1` (stereo not drawn) [37(2), trans-4-hydroxy-4-[5-(3-methyl-5-{[4-(trifluoromethyl)pyrimidin-2-yl]amino}phenyl)-1,3-thiazol-2-yl]cyclohexanecarbonitrile], the IC50 is below 100 nM.

For `Cc1cc(Nc2nccc(C(F)(F)F)n2)cc(-c2cnc([C@]3(O)CC[C@H](C(N)=O)CC3)s2)c1` [38(1), trans-4-hydroxy-4-[5-(3-methyl-5-{[4-(trifluoromethyl)pyrimidin-2-yl]amino}phenyl)-1,3-thiazol-2-yl]cyclohexanecarboxamide], the IC50 is below 100 nM. Regarding `Cc1cc(Nc2nccc(C(F)(F)F)n2)cc(-c2cnc(C3(O)CCC(C(N)=O)CC3)s2)c1` (stereo not drawn) [38(2), cis-4-hydroxy-4-[5-(3-methyl-5-{[4-(trifluoromethyl)pyrimidin-2-yl]amino}phenyl)-1,3-thiazol-2-yl]cyclohexanecarboxamide], the IC50 was below 100 nM.
